Test results as given in the NIST ThermoML archive (doi:10.1021/acs.jced.7b00604).

Test: xn = mol fraction of the nth substance listed
Details: 100 kPa, Liquid; for speed of sound: Frequency=3 MHz, Sing-around technique in a fixed-path interferometer; for mass density: Vibrating tube method

COCCO [2-methoxyethan-1-ol] + CCCC[n+]1ccn(C)c1.O=S(=O)([N-]S(=O)(=O)C(F)(F)F)C(F)(F)F
Details	mass density [kg/m3]	speed of sound [m/s]
298.15 K, x2 = 0	960.31	1341.8
298.15 K, x2 = 0.0966	1098.07	1301.4
298.15 K, x2 = 0.1943	1188.97	1279.7
298.15 K, x2 = 0.2887	1250.58	1266
298.15 K, x2 = 0.3979	1302.72	1253.5
298.15 K, x2 = 0.4792	1332.79	1246.7
298.15 K, x2 = 0.5943	1365.91	1239.9
298.15 K, x2 = 0.6753	1384.52	1236.6
298.15 K, x2 = 0.8101	1409.81	1232.5
298.15 K, x2 = 0.8849	1421.49	1230.2
303.15 K, x2 = 0	955.71	1324.1
303.15 K, x2 = 0.0966	1093.42	1285.2
303.15 K, x2 = 0.1943	1184.24	1264.7
303.15 K, x2 = 0.2887	1245.82	1251.7
303.15 K, x2 = 0.3979	1298.03	1240.4
303.15 K, x2 = 0.4792	1328.12	1234.1
303.15 K, x2 = 0.5943	1361.32	1227.6
303.15 K, x2 = 0.6753	1379.92	1224.9
303.15 K, x2 = 0.8101	1405.23	1221.2
303.15 K, x2 = 0.8849	1416.91	1219
308.15 K, x2 = 0	951.08	1307.3
308.15 K, x2 = 0.0966	1088.78	1269.8
308.15 K, x2 = 0.1943	1179.32	1250.1
308.15 K, x2 = 0.2887	1240.86	1237.7
308.15 K, x2 = 0.3979	1292.99	1227.8
308.15 K, x2 = 0.4792	1323.11	1221.7
308.15 K, x2 = 0.5943	1356.31	1216.1
308.15 K, x2 = 0.6753	1374.96	1213.3
308.15 K, x2 = 0.8101	1400.24	1209.9
308.15 K, x2 = 0.8849	1411.97	1208.2
313.15 K, x2 = 0	946.41	1292
313.15 K, x2 = 0.0966	1084.06	1255.3
313.15 K, x2 = 0.1943	1174.55	1236.4
313.15 K, x2 = 0.2887	1236.14	1224.7
313.15 K, x2 = 0.3979	1288.26	1215.7
313.15 K, x2 = 0.4792	1318.36	1209.7
313.15 K, x2 = 0.5943	1351.69	1204.9
313.15 K, x2 = 0.6753	1370.39	1202
313.15 K, x2 = 0.8101	1395.76	1198.9
313.15 K, x2 = 0.8849	1407.44	1197.3
318.15 K, x2 = 0	941.72	1274.2
318.15 K, x2 = 0.0966	1079.38	1238.8
318.15 K, x2 = 0.1943	1169.76	1221.3
318.15 K, x2 = 0.2887	1231.28	1210.4
318.15 K, x2 = 0.3979	1283.31	1202.3
318.15 K, x2 = 0.4792	1313.34	1197.1
318.15 K, x2 = 0.5943	1346.72	1192.7
318.15 K, x2 = 0.6753	1365.42	1190.3
318.15 K, x2 = 0.8101	1390.82	1187.7
318.15 K, x2 = 0.8849	1402.59	1186.3
323.15 K, x2 = 0	936.99	1259.4
323.15 K, x2 = 0.0966	1074.61	1224.6
323.15 K, x2 = 0.1943	1165.02	1207.8
323.15 K, x2 = 0.2887	1226.67	1197.6
323.15 K, x2 = 0.3979	1278.8	1190.1
323.15 K, x2 = 0.4792	1308.85	1185
323.15 K, x2 = 0.5943	1342.24	1181.1
323.15 K, x2 = 0.6753	1361.02	1179.1
323.15 K, x2 = 0.8101	1386.53	1176.9
323.15 K, x2 = 0.8849	1398.24	1175.9
